Reference: patent publication US20090068126A1, “Composition for surface photoprotection” (priority 2004, published 2009)

Columns and labels:
[1] = test system: short hair line albino Guinea pigs; assay: Phototoxicity in vivo; parameters: species or system guinea pig; conditions: 0.1 g %, only in the irradiated area
Experimental: The tests are accomplished in short hair line albino Guinea pigs (n=4). Twenty-four hours before the application of the test substance to 5% [tween/ethanol/water (1:1:10)], the animals dorsal portion hair are chemically removed. Four application sites are chosen, at random: 2 areas for the test substance and other 2 for the methoxypsoralen phototoxic standard at 0.1 g %, following by the UVA radiation exposition, and a control area is protected from the light. After 24 and 48 hours, the observations are made as for the erythema edema formation (AGÊNCIA NACIONAL DE VIGILÂNCIA SANITÁRIA-Brazil, Guia para avaliaçãa de segurança de produtos cosméticos. 2003.; Freitas, Z. M. F., I Ax, P. A., Dellamora-Ortiz, G. M., Santos, E. P., Gonçalves, J. C. S., 2000, S.T.P Pharma Sciences, 10 (3) 239-242; Dinardo, J. C., Wolf, B. A., Morris, W. E., Tenenbaum, S., Schnetzinger, R. W., 1985, J. Soc. Cosmet. Chem., 36, 425-433).

[2] = test system: Saccharomyces cerevisiae yeast, wild type strain D273-10B; assay: Phototoxicity test in Saccharomyces cerevisiae yeast (in vitro); assay type: cell-based
Source text: The method applied was used by Freitas (Freitas, Z. M. F., I Ax, P. A., Dellamora-Ortiz, G. M., Santos, E. P., Gonçalves, J. C. S., S.T.P Pharma Sciences, 2000, 10 (3): 239-242) for the Saccharomyces cerevisiae yeast use, wild type strain D273-10B, at room temperature, which dense cell layer is not sensitive to the ultraviolet radiation among 320-390 nm (UVA), besides being innocuous.
The yeast growth was in a YPD medium, constituted by yeast extract (1%), peptone (2%), anhydrous glucose (2%), agar (2%). […] The studied substances were applied in 1 g % concentration in Wharman no. 1 sterile filter paper disks, and fixed on the surface of culture media plates. A S. cerevisiae suspension was prepared in sterilized water (10 mL). Aliquots of 0.2 mL were applied and spread in the culture plates using a glass loop. Two plates were prepared for each sample. After seeding and applying the samples, one plate was allowed to grow under two UVA lamps (320-390 nm). A control plate was grown in the dark. […]

COc1c2occc2cc2ccc(=O)oc12 [8-methoxypsoralen]
erythema degree ([1]; 24 hours): 1 | erythema degree ([1]; 48 hours): 2 | growth inhibition halo ([2]; 0.1 g % in ethanol, plates in the light and in the dark): presented growth inhibition halo in the light | phototoxic answer in the in vitro phototoxicity test ([2]; irradiated plate and plate with light absence): non-phototoxic
